Measured values taken from PubChem BioAssay (NCI).
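A five-concentration, 48-hour dose response in 96-well plates underlies each endpoint, interpolated linearly between surrounding concentrations. GI50: concentration for 50% inhibition of growth. The concentration for full growth arrest is given as TGI.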

What was measured:
Assay in all cases: NCI-60 cell line screen, 48 h
[1] = tested on: RXF 393 renal
[2] = tested on: UACC-62 melanoma
[3] = tested on: OVCAR-3 ovarian
[4] = tested on: BT-549 breast
[5] = tested on: MDA-MB-435
[6] = tested on: HCC-2998 colon
[7] = tested on: M14 melanoma
[8] = tested on: SK-OV-3 ovarian
[9] = tested on: NCI-H522 lung
[10] = tested on: IGROV1 ovarian

COC(=O)C1=C(C)NC(C)=C(C(=O)OC)C1c1nc2sccn2c1[N+](=O)[O-]
TGI [1]: > 100 µM
TGI [2]: > 100 µM
TGI [3]: > 100 µM
TGI [4]: > 100 µM
TGI [5]: > 100 µM
TGI [6]: > 100 µM
TGI [7]: > 100 µM
TGI [8]: > 100 µM

Nc1ccc(S(=O)(=O)Nc2nccs2)cc1
TGI [9]: > 100 µM
TGI [1]: > 100 µM
TGI [2]: > 100 µM
TGI [3]: > 100 µM
TGI [4]: > 100 µM
TGI [5]: > 100 µM
TGI [6]: > 100 µM
TGI [10]: > 100 µM
TGI [7]: > 100 µM
TGI [8]: > 100 µM

S=C(Nc1ccc2c(c1)oc1ccccc12)c1cccnc1
TGI [9]: 64 µM
TGI [2]: > 100 µM
TGI [3]: 67.3 µM
TGI [4]: > 100 µM
TGI [5]: > 100 µM
TGI [6]: > 100 µM
TGI [10]: > 100 µM
TGI [7]: > 100 µM
TGI [8]: 40.7 µM

C=C1CN2CC(=C)CN(C1)CS(=O)(=O)N1CC(=C)CN(CC(=C)C1)S(=O)(=O)N1CC(=C)CN(CC(=C)C1)S(=O)(=O)C2
TGI [9]: > 100 µM
TGI [1]: 56.8 µM
TGI [2]: > 100 µM
TGI [3]: > 100 µM
TGI [4]: > 100 µM
TGI [5]: > 100 µM
TGI [6]: 37.5 µM
TGI [10]: > 100 µM
TGI [7]: > 100 µM

CC(C)NC(=O)OCCN=c1c2ccccc2ccc2ccccc12
TGI [1]: > 100 µM
TGI [2]: > 100 µM
TGI [3]: 95.6 µM
TGI [4]: > 100 µM
TGI [5]: > 100 µM
TGI [6]: > 100 µM
TGI [10]: > 100 µM
TGI [7]: > 100 µM
TGI [8]: > 100 µM

CN(C)c1ccc(C2SCC(=O)N2c2ccc(Oc3ccc(Cl)cc3)c(Cl)c2)cc1 (stereo not given)
TGI [9]: 42.9 µM
TGI [2]: 42.7 µM
TGI [3]: 79.9 µM
TGI [4]: 48.2 µM
TGI [5]: 84 µM
TGI [6]: 52.4 µM
TGI [10]: 92.5 µM
TGI [7]: 69 µM
TGI [8]: 60.4 µM

C=CCOc1ccc(C2C(C(=O)OCC)C(=O)CC(C)(O)C2C(=O)OCC)cc1OC (stereo not given)
TGI [9]: > 100 µM
TGI [1]: > 100 µM
TGI [2]: > 100 µM
TGI [3]: > 100 µM
TGI [4]: > 100 µM
TGI [5]: > 100 µM
TGI [6]: > 100 µM
TGI [10]: > 100 µM
TGI [7]: > 100 µM

Cc1cc(S(=O)(=O)Nc2nc3cc(-c4ccc(Cl)cc4)sc3c(=O)n2N)c(S)cc1Cl
TGI [9]: > 100 µM
TGI [1]: > 100 µM
TGI [2]: > 100 µM
TGI [3]: > 100 µM
TGI [4]: > 100 µM
TGI [5]: > 100 µM
TGI [6]: > 100 µM
TGI [10]: > 100 µM
TGI [7]: > 100 µM
TGI [8]: > 100 µM

Nc1ccc(C(=O)N2CCC[C@H]2CO)c(N)c1
TGI [9]: > 100 µM
TGI [1]: > 100 µM
TGI [2]: > 100 µM
TGI [3]: > 100 µM
TGI [4]: > 100 µM
TGI [5]: > 100 µM
TGI [6]: > 100 µM
TGI [10]: > 100 µM
TGI [7]: > 100 µM
TGI [8]: > 100 µM

CCOC(=O)c1ccc(C)c(N=NN(C)C)c1
TGI [9]: > 100 µM
TGI [1]: > 100 µM
TGI [2]: > 100 µM
TGI [3]: > 100 µM
TGI [6]: > 100 µM
TGI [10]: > 100 µM
TGI [7]: > 100 µM
TGI [8]: > 100 µM

COc1ccc(-c2nn(-c3ccc(NC(=O)Nc4cc(C(F)(F)F)cc(C(F)(F)F)c4)cc3)cc2-c2ccncc2)cc1Cl
GI50 [9]: 1.9 µM
TGI [9]: 7.01 µM
GI50 [1]: 1.69 µM
TGI [1]: 3.87 µM
GI50 [2]: 2.02 µM
TGI [2]: 5.02 µM
GI50 [3]: 2.32 µM
TGI [3]: 8.85 µM
GI50 [5]: 3.03 µM
TGI [5]: > 100 µM
GI50 [6]: 3.12 µM
TGI [6]: 46.7 µM
GI50 [10]: 3.45 µM
TGI [10]: > 100 µM
GI50 [7]: 1.91 µM
TGI [7]: 4.4 µM

Cc1cc(NCc2ccccc2)c2ccccc2[n+]1CCCCCCCCCC[n+]1c(C)cc(NCc2ccccc2)c2ccccc21
TGI [9]: 44.3 µM
TGI [1]: 12.9 µM
TGI [2]: 0.567 µM
TGI [4]: 1.98 µM
TGI [5]: 1.65 µM
TGI [6]: 1.79 µM
TGI [10]: > 100 µM
TGI [7]: 3.22 µM
TGI [8]: 6.85 µM

COC(=O)C1CCCN1C(=O)C(Cc1cn(S(=O)(=O)c2ccc(C)cc2)cn1)NC(=O)OC(C)(C)C (stereo not given)
TGI [1]: > 100 µM
TGI [2]: > 100 µM
TGI [4]: > 100 µM
TGI [6]: > 100 µM
TGI [10]: > 100 µM
TGI [7]: > 100 µM

Cc1ccc(S(=O)(=O)NC(=O)N[C@@H](Cc2cnc[nH]2)C(=O)O)cc1
TGI [9]: > 100 µM
TGI [1]: > 100 µM
TGI [2]: > 100 µM
TGI [4]: > 100 µM
TGI [10]: > 100 µM
TGI [7]: > 100 µM
TGI [8]: > 100 µM

Nc1ccn(C2OC(CO)C(O)C2O)c(=O)c1 (stereo not given)
TGI [9]: > 625 µM
TGI [1]: > 625 µM
TGI [2]: > 625 µM
TGI [3]: > 625 µM
TGI [6]: > 625 µM
TGI [10]: > 625 µM
TGI [8]: > 625 µM

CC1=NNC(=O)C1C(CC(=O)c1c[nH]c2ccccc12)C(=O)O (stereo not given)
TGI [9]: > 100 µM
TGI [1]: > 100 µM
TGI [2]: > 100 µM
TGI [3]: > 100 µM
TGI [4]: > 100 µM
TGI [5]: > 100 µM
TGI [10]: > 100 µM
TGI [7]: > 100 µM
TGI [8]: > 100 µM

Cc1ccc(S(=O)(=O)C(C#N)c2nc3ccccc3nc2-n2ccnc2)cc1 (stereo not given)
TGI [9]: > 100 µM
TGI [3]: > 100 µM
TGI [6]: > 100 µM
TGI [10]: > 100 µM
TGI [7]: > 100 µM
TGI [8]: > 100 µM

COc1ccc(C2COc3cc(O)c(O)cc3C2)cc1 (stereo not given)
TGI [9]: 14.1 µM
TGI [1]: 20.3 µM
TGI [2]: 46.3 µM
TGI [3]: 28.1 µM
TGI [6]: 184 µM
TGI [10]: 148 µM
TGI [8]: 163 µM

CC(C)CC(O)P(=O)(O)O (stereo not given)
TGI [1]: > 100 µM
TGI [2]: > 100 µM
TGI [3]: > 100 µM
TGI [5]: > 100 µM
TGI [6]: > 100 µM
TGI [7]: > 100 µM
TGI [8]: > 100 µM

CCC(=O)ONC(=O)Cn1ccc([N+](=O)[O-])n1
TGI [9]: > 100 µM
TGI [1]: > 100 µM
TGI [2]: > 100 µM
TGI [3]: > 100 µM
TGI [5]: > 100 µM
TGI [6]: > 100 µM
TGI [10]: > 100 µM
TGI [7]: > 100 µM
TGI [8]: > 100 µM

Cn1c2ccccc2c(=O)c2cccc(C(=O)NC(CCCN=C(N)N)C(=O)O)c21 (stereo not given)
TGI [2]: > 100 µM
TGI [3]: > 100 µM
TGI [4]: > 100 µM
TGI [5]: > 100 µM
TGI [6]: > 100 µM
TGI [10]: > 100 µM
TGI [7]: > 100 µM
TGI [8]: > 100 µM

COc1ccc2c(c1)CCN1CCc3ccccc3CC21 (stereo not given)
TGI [9]: > 100 µM
TGI [2]: > 100 µM
TGI [3]: > 100 µM
TGI [4]: > 100 µM
TGI [5]: > 100 µM
TGI [6]: 48.1 µM
TGI [10]: > 100 µM
TGI [7]: 36.6 µM
TGI [8]: > 100 µM

On1c(-c2ccccc2)nc2ccccc2c1=S
TGI [1]: > 100 µM
TGI [2]: > 100 µM
TGI [3]: > 100 µM
TGI [4]: > 100 µM
TGI [5]: > 100 µM
TGI [6]: > 100 µM
TGI [10]: > 100 µM
TGI [7]: > 100 µM
TGI [8]: > 100 µM
